Results: patent US20230135524A1, “ARYL HYDANTOIN HETEROCYCLES AND METHODS OF USE” (The United States of America,as represented by the …, priority 2020, published 2023)

Assays:
AR = biological target: T1, AR (Homo sapiens, UniProt P10275); assay: AR transcriptional output, ARE-luciferase assay in HEK 293T cells; type: cell-based; conditions: for antagonist or inverse agonist activity on AR transcriptional activity (in words): 10 μM, HEK 293T, FIG. 6A; for activity at 10 µM: HEK-293T, read-out: AR antagonist activity (% RLU)
T1 construct: host or cells: HEK 293T
T1 sequence (P10275 1-920): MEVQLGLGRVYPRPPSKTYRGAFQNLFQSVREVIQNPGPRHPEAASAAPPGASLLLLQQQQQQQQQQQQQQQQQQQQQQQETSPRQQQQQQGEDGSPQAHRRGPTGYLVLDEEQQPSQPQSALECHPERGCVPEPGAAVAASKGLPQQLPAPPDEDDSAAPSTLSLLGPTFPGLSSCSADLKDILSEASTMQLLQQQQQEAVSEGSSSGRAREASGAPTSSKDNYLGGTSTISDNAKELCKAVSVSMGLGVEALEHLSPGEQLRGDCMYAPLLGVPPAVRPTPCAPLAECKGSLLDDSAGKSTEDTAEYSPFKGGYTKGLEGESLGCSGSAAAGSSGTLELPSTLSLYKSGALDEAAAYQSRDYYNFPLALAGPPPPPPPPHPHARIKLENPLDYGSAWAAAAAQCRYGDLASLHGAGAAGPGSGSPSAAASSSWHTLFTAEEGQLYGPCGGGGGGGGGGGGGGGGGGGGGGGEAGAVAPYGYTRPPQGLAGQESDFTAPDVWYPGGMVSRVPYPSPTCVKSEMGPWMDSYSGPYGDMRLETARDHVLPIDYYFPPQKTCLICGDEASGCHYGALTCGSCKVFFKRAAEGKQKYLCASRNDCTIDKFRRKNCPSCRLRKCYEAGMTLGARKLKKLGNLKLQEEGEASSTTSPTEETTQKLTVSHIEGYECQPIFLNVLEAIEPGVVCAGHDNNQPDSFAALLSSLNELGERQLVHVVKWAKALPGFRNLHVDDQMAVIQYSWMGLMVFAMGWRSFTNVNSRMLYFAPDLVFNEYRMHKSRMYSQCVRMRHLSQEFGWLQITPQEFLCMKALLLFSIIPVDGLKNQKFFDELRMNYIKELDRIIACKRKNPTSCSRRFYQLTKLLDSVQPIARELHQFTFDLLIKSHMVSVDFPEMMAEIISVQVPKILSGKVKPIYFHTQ
Procedure: 100% is set to the activity with 200 μM testosterone, and 0% is set to the basal level (no ligand).
Cells were maintained in steroid free media, and stimulated with 200 μM testosterone, followed immediately by administration of exemplary compounds (Table 1, below). RLU is relative luciferase units, relative to DMSO control with 200 μM testosterone alone. Data represent an average of 3 independent experiments performed in triplicate wells per compounds at 10 μM.
Cells were maintained in steroid-free media, and stimulated with 200 μM testosterone, followed immediately by administration of a test compound. […] Compounds were dosed at 10 μM in FIGS. 6A and 6B.
Cells were maintained in steroid-free media, and stimulated with 200 μM testosterone, followed immediately by administration of a test compound.

LNCaP = assay: IncuCyte % confluence cell growth inhibition, LNCaP; type: cell-based; conditions: Homo sapiens, read-out: IC50 values (μM), LNCaP
Procedure: (§1) Images were then analyzed to discern the % confluence of cells in each well. IC50 values were calculated from dose response curves of the % cell growth inhibition relative to DMSO control at the same time point per each cell line.

LNCAP AR = assay: IncuCyte % confluence cell growth inhibition, LNCAP AR; type: cell-based; conditions: read-out: IC50 values (μM), LNCAP AR
Procedure: as §1

LAPC4 = assay: IncuCyte % confluence cell growth inhibition, LAPC4; type: cell-based; conditions: Homo sapiens, LAPC4, read-out: IC50 values (μM), LAPC4
Procedure: as §1

22Rv1 = assay: IncuCyte % confluence cell growth inhibition, 22Rv1; type: cell-based; conditions: Homo sapiens, 22Rv1, read-out: IC50 values (μM), 22Rv1
Procedure: as §1

LNCaP ARin vivo = assay: IncuCyte % confluence cell growth inhibition, LNCaP ARin vivo; type: cell-based; conditions: Homo sapiens, read-out: IC50 values (μM), LNCaP ARin vivo
Procedure: as §1

LNCaP ARF876L = assay: IncuCyte % confluence cell growth inhibition, LNCaP ARF876L; type: cell-based; conditions: Homo sapiens, AR-positive, AR mutation F876L, % cell growth inhibition relative to DMSO
Procedure: as §1

PC3 = assay: IncuCyte % confluence cell growth inhibition, PC3; type: cell-based; conditions: Homo sapiens, PC-3, read-out: IC50 values (μM), PC3
Procedure: as §1

DU145 = assay: IncuCyte % confluence cell growth inhibition, DU145; type: cell-based; conditions: Homo sapiens, DU-145, read-out: IC50 values (μM), DU145
Procedure: as §1

[1] = Pharmacokinetics in non-tumor bearing BALB/C mice, IV and PO; type: in vivo; conditions: for AUClast—D / Cmax—D: dose-normalised; for AUC(0-t) / Cmax / Tmax / half-life: mouse, plasma
Procedure: FIG. 14A-B are graphs of time (hours) versus plasma concentration (ng/mL) for intravenous (IV) (FIG. 14A) and oral (PO) (FIG. 14B) administration of 15a and 15n over 12 hours. Error bars represent the standard deviation in ng/mL from three independent mice per time point.
Clearance, Cmax, half life, dose/AUC, and bioavailability were calculated by statistical analysis using PHOENIX™ WINNONLIN™ v7.0 (Certara, Princeton, N.J.). The results are shown in FIGS. 14A and 14B and Table 4.

LAMP cells [2] = assay: RNA-seq / gene set enrichment and master TF expression in LAMP cells; type: cell-based
Procedure: FIG. 16A-B are a Gene Set Enrichment Analysis for AR gene pathways (FIG. 16A) and MYC gene pathways (FIG. 16B) in LAMP cells (LNCaP cells engineered with CRISPR to have amplification of the AR enhancer) treated with either 15n or dimethylsulfoxide (DMSO) for 48 hours, followed by RNA-seq.
FIG. 16A-B are Gene Set Enrichment Analyses for AR gene pathways (FIG. 16A) and MYC gene pathways ([…]) in LAMP cells (LNCaP cells engineered with CRISPR (clustered regularly interspaced short palindromic repeats) to have amplification of the AR enhancer) treated with either 15n or DMSO for 48 hours, followed by RNA-seq.
(§2) This AR dominated cluster 1 is often driven by amplification of the distal AR enhancer (Takeda et al., Cell, 2018, 174(2), 422-432).

LAMP cells [3] = assay: Growth reduction kinetics in LAMP cells; type: cell-based; conditions: 15 μM and 30 μM, FIG. 20
Text: as §2

[4] = system: LAPC4 prostate cancer cells; assay: LAPC4 mouse xenograft tumor volume; type: in vivo, Mice; conditions: oral gavage, LAPC4 mouse xenografts, day 17, FIG. 22
Procedure: FIG. 22 is a graph of tumor volume on day 17 as a percent change from the baseline.
Treatment was given once for 5 days followed by 2 days of rest. Tumor size was monitored by caliper twice weekly. Change from baseline tumor volume was calculated and reported as a waterfall plot. The in vivo activity is shown in FIG. 14, as measured by the percent change from the baseline.

LuCaP 167 = LuCaP 167 prostate cancer PDX tumor growth; type: in vivo, NSG male mice; conditions: 10 mg/kg oral gavage, 5 days on 2 days off, LuCaP 167 PDX, FIG. 23
Procedure: LuCaP 167 is a well-characterized androgen sensitive prostate cancer (PCa) PDX model established at the University of Washington and has been validated using short tandem repeat (STR) analysis. All preclinical in vivo experiments were performed in accordance with NCI Animal Care and Use Committee approved protocol. Six-week-old NSGmale mice were housed in a sterile, pathogen-free facility and maintained in a temperature-controlled room under a 12-hour light/dark schedule with water and food ad libitum. All mice were operated under sedation with oxygen and isoflurane. Ibuprofen and/or buprenorphine was administered post-surgery. LuCaP 167 was implanted subcutaneously under the left flank of intact mice. When tumors reached an average volume of ˜500 mm^3, mice were randomized and placed in either control group or treatment groups (n=10/group). […] Tumor burden was assessed twice per week by caliper measurement of two diameters of the tumor (L×W=mm^2) and reported as tumor volume ((L×W^2)/2=mm^3). Body weights were assessed using a weighing scale and recorded in grams. At the end-of-treatment (EOT) timepoint, tumor tissues were excised, weighed, and snap frozen for further analysis.

In the case of CC1(C)C(=O)N(c2ccc(C#N)c(C(F)(F)F)c2)C(=O)N1Cc1ccc(-c2c[nH]nn2)cc1 [Compound 14a, 4-(3-(4-(1H-1,2,3-triazol-4-yl)benzyl)-4,4-dimethyl-2,5-dioxoimidazolidin-1-yl)-2-(trifluoromethyl)benzonitrile], the “antagonist or inverse agonist activity on AR transcriptional activity (in words)” value (AR) is reported as “reduced the transcriptional activity of the AR well below the expression in the absence of any steroids or ligands”, the activity at 10 µM (AR) is reported as -64% and the IC50 (LNCaP) is reported as 44.8 µM. It also gave an IC50 (LNCAP AR) of 32.5 µM, an IC50 (LAPC4) of 70 µM and an IC50 (22Rv1) of 46.5 µM. The IC50 (LNCaP ARin vivo) was 65.4 µM, the IC50 (LNCaP ARF876L) was 35.9 µM and the IC50 (PC3) was 68.5 µM. For the same molecule, the IC50 (DU145) was 84.1 µM.

In the case of CC1(C)C(=O)N(c2cnc(C#N)c(C(F)(F)F)c2)C(=S)N1Cc1ccc(-c2c[nH]nn2)cc1 [Compound 15n], the “AUClast—D” value ([1]; IV, 1 mg/kg) is reported as 6255.85 kg·ng·h/mL/mg, the “Cmax—D” value ([1]; IV, 1 mg/kg) is reported as 936.94 kg·ng/mL/mg and the “AUClast—D” value ([1]; PO, 20 mg/kg) is reported as 4866.48 kg·ng·h/mL/mg. For the same molecule, the “Cmax—D” value ([1]; PO, 20 mg/kg) was 549.09 kg·ng/mL/mg, the AUC(0-t) ([1]; IV, 1 mg/kg) was 6260 ng·h/mL and the Cmax ([1]; IV, 1 mg/kg) was 937 ng/mL. It also gave a Tmax ([1]; IV, 1 mg/kg) of 0.5 h, a half-life ([1]; IV, 1 mg/kg) of 9.13 h and an AUC(0-t) ([1]; PO, 20 mg/kg) of 97300 ng·h/mL. The Cmax ([1]; PO, 20 mg/kg) was 11000 ng/mL, the Tmax ([1]; PO, 20 mg/kg) was 1 h and the half-life ([1]; PO, 20 mg/kg) was 22.3 h. The ATF4 expression (LAMP cells [2]; 48 hours, FIG. 19) was “greatly reduced”, the “AR target gene set (Gene Set Enrichment Analysis)” value (LAMP cells [2]; 48 hours, versus DMSO, RNA-seq) was “down regulated” and the “MYC target gene set (Gene Set Enrichment Analysis)” value (LAMP cells [2]; 48 hours, versus DMSO, RNA-seq) was “down regulated”. The “ATF4 driven amino-acid tRNA synthesis pathway” value (LAMP cells [2]; compared with enzalutamide) was “able to also downregulate”, the “cell killing compared with enzalutamide” value (LAMP cells [3]) was “superior cell killing at lower doses than enzalutamide” and the “tumor burden (percent change from baseline tumor volume)” value [4] was “retained its ability to reduce tumor burden”. For the same molecule, the “anti-tumor effect (average tumor growth rate)” value (LuCaP 167) was “superior anti-tumor effect over enzalutamide”.

With CC1(C)C(=O)N(c2ccc(C#N)c(C(F)(F)F)c2)C(=S)N1c1ccc(-c2c[nH]nn2)cc1 [Compound 16a, 4-(3-(4-(1H-1,2,3-triazol-4-yl)phenyl)-4,4-dimethyl-5-oxo-2-thioxoimidazolidin-1-yl)-2-(trifluoromethyl)benzonitrile] the “antagonist or inverse agonist activity on AR transcriptional activity (in words)” value (AR) was “reduced the transcriptional activity of the AR well below the expression in the absence of any steroids or ligands”, the activity at 10 µM (AR) was -22% and the IC50 (LNCaP) was 17.1 µM. The IC50 (LNCAP AR) was 21.2 µM, the IC50 (LAPC4) was 17.3 µM and the IC50 (22Rv1) was 20.7 µM. The IC50 (LNCaP ARin vivo) was 33.6 µM, the IC50 (LNCaP ARF876L) was 30.2 µM and the IC50 (PC3) was 49.2 µM. The IC50 (DU145) was 39.9 µM.
